Results as given in the supplement of paper PMC10307832.

Legend:
Assay in all cases: relative viability (nuclei count vs DMSO), 5 days (fraction); higher = more cells survive
NCI-H1563 = test system: NCI-H1563
In short: (§1)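 Lung cancer cell lines were pin-tool dosed in 1536-well plates on the day after seeding, with either a lone drug or a fixed anchor-drug dose plus five library-drug doses (not always all listed) in √10 steps. Nuclei were counted on 4× images after 5 days. Relative viability is the ratio of treated-well to vehicle-well nuclei counts, with each value a median of duplicate plates.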

NCI-H1648 = test system: NCI-H1648
In short: as §1

SW 900 = test system: SW 900
In short: as §1

NCI-H1623 = test system: NCI-H1623
In short: as §1

NCI-H522 = test system: NCI-H522
In short: as §1

NCI-H2342 = test system: NCI-H2342
In short: as §1

NCI-H1703 = test system: NCI-H1703
In short: as §1

EBC-1 = test system: EBC-1
In short: as §1

NCI-H1299 = test system: NCI-H1299
In short: as §1

A549 = test system: A549
In short: as §1

IA-LM = test system: IA-LM
In short: as §1

Calu-6 = test system: Calu-6
In short: as §1

Cc1cnc(-c2cnc(NCCNc3ccc(C#N)cn3)nc2-c2ccc(Cl)cc2Cl)[nH]1 + COc1cccc2cc(-c3nc([C@H]4CC[C@H](C(=O)O)CC4)n4ncnc(N)c34)[nH]c12 [OSI-027] (partner 0.5 µM)
relative viability (NCI-H1563; first compound 0.08 µM): 0.798
relative viability (NCI-H1563; first compound 0.253 µM): 0.733
relative viability (NCI-H1563; first compound 0.8 µM): 0.758
relative viability (NCI-H1563; first compound 2.53 µM): 0.78
relative viability (NCI-H1648; first compound 0.08 µM): 0.24
relative viability (NCI-H1648; first compound 0.253 µM): 0.259
relative viability (NCI-H1648; first compound 0.8 µM): 0.242
relative viability (NCI-H1648; first compound 2.53 µM): 0.289
relative viability (SW 900; first compound 0.08 µM): 0.695
relative viability (SW 900; first compound 0.253 µM): 0.56
relative viability (SW 900; first compound 0.8 µM): 0.502
relative viability (SW 900; first compound 2.53 µM): 0.546
relative viability (NCI-H1623; first compound 0.08 µM): 0.478
relative viability (NCI-H1623; first compound 0.253 µM): 0.417
relative viability (NCI-H1623; first compound 0.8 µM): 0.413
relative viability (NCI-H1623; first compound 2.53 µM): 0.48
relative viability (NCI-H522; first compound 0.08 µM): 0.653
relative viability (NCI-H522; first compound 0.253 µM): 0.705
relative viability (NCI-H522; first compound 0.8 µM): 0.647
relative viability (NCI-H522; first compound 2.53 µM): 0.885
relative viability (NCI-H2342; first compound 0.08 µM): 0.653
relative viability (NCI-H2342; first compound 0.253 µM): 0.546
relative viability (NCI-H2342; first compound 0.8 µM): 0.556
relative viability (NCI-H2342; first compound 2.53 µM): 0.53

Cc1cnc(-c2cnc(NCCNc3ccc(C#N)cn3)nc2-c2ccc(Cl)cc2Cl)[nH]1 + Cc1cc(Nc2cc(N3CCN(C)CC3)nc(Sc3ccc(NC(=O)C4CC4)cc3)n2)n[nH]1 [Tozasertib] (partner 0.1 µM)
relative viability (NCI-H1648; first compound 0.08 µM): 0.487
relative viability (NCI-H1648; first compound 0.253 µM): 0.502
relative viability (NCI-H1648; first compound 0.8 µM): 0.465
relative viability (NCI-H1648; first compound 2.53 µM): 0.52
relative viability (SW 900; first compound 0.08 µM): 0.667
relative viability (SW 900; first compound 0.253 µM): 0.511
relative viability (SW 900; first compound 0.8 µM): 0.439
relative viability (SW 900; first compound 2.53 µM): 0.415
relative viability (NCI-H1623; first compound 0.08 µM): 0.477
relative viability (NCI-H1623; first compound 0.253 µM): 0.426
relative viability (NCI-H1623; first compound 0.8 µM): 0.414
relative viability (NCI-H1623; first compound 2.53 µM): 0.417
relative viability (NCI-H522; first compound 0.08 µM): 0.629
relative viability (NCI-H522; first compound 0.8 µM): 0.506
relative viability (NCI-H522; first compound 2.53 µM): 0.591
relative viability (NCI-H2342; first compound 0.08 µM): 0.519
relative viability (NCI-H2342; first compound 0.253 µM): 0.513
relative viability (NCI-H2342; first compound 0.8 µM): 0.507
relative viability (NCI-H2342; first compound 2.53 µM): 0.505

O=C(O)CCCCC(CCSCc1ccccc1)SCc1ccccc1 (stereo unspecified) [CPI-613] + COc1cc2c(Oc3ccc(NC(=O)C4(C(=O)Nc5ccc(F)cc5)CC4)cc3F)ccnc2cc1OCCCN1CCOCC1 [Foretinib] (partner 0.25 µM)
relative viability (NCI-H1703; first compound 5 µM): 0.442
relative viability (NCI-H1703; first compound 15.81 µM): 0.353
relative viability (NCI-H1703; first compound 158.11 µM): 0.331
relative viability (NCI-H1703; first compound 500 µM): 0.33
relative viability (NCI-H1563; first compound 5 µM): 0.957
relative viability (NCI-H1563; first compound 15.81 µM): 0.896
relative viability (NCI-H1563; first compound 50 µM): 0.892
relative viability (NCI-H1563; first compound 158.11 µM): 0.665
relative viability (NCI-H1563; first compound 500 µM): 0.231
relative viability (EBC-1; first compound 5 µM): 0.0958
relative viability (EBC-1; first compound 15.81 µM): 0.0971
relative viability (EBC-1; first compound 50 µM): 0.0899
relative viability (EBC-1; first compound 158.11 µM): 0.0957
relative viability (EBC-1; first compound 500 µM): 0.0975
relative viability (NCI-H1299; first compound 5 µM): 1.03
relative viability (NCI-H1299; first compound 15.81 µM): 1.04
relative viability (NCI-H1299; first compound 50 µM): 1.1
relative viability (NCI-H1299; first compound 158.11 µM): 1.08
relative viability (NCI-H1299; first compound 500 µM): 1.14
relative viability (A549; first compound 5 µM): 0.942
relative viability (A549; first compound 15.81 µM): 0.829
relative viability (A549; first compound 50 µM): 0.848
relative viability (A549; first compound 158.11 µM): 0.944
relative viability (A549; first compound 500 µM): 0.641
relative viability (SW 900; first compound 5 µM): 0.743
relative viability (SW 900; first compound 15.81 µM): 0.776
relative viability (SW 900; first compound 50 µM): 0.792
relative viability (SW 900; first compound 158.11 µM): 0.418
relative viability (SW 900; first compound 500 µM): 0.0443
relative viability (NCI-H1623; first compound 5 µM): 0.845
relative viability (NCI-H1623; first compound 15.81 µM): 0.921
relative viability (NCI-H1623; first compound 50 µM): 0.972
relative viability (NCI-H1623; first compound 158.11 µM): 0.59
relative viability (NCI-H1623; first compound 500 µM): 0.831
relative viability (IA-LM; first compound 5 µM): 1.12
relative viability (IA-LM; first compound 15.81 µM): 1.16
relative viability (IA-LM; first compound 50 µM): 1.13
relative viability (IA-LM; first compound 158.11 µM): 0.933
relative viability (IA-LM; first compound 500 µM): 0.872
relative viability (Calu-6; first compound 5 µM): 0.872
relative viability (Calu-6; first compound 15.81 µM): 0.848
relative viability (Calu-6; first compound 50 µM): 0.865
relative viability (Calu-6; first compound 158.11 µM): 0.769
relative viability (Calu-6; first compound 500 µM): 0.675
relative viability (NCI-H2342; first compound 5 µM): 1.04
relative viability (NCI-H2342; first compound 15.81 µM): 0.978
relative viability (NCI-H2342; first compound 50 µM): 1.04
relative viability (NCI-H2342; first compound 158.11 µM): 1.12
relative viability (NCI-H2342; first compound 500 µM): 1.05

O=C(O)CCCCC(CCSCc1ccccc1)SCc1ccccc1 (stereo unspecified) [CPI-613] + COc1cccc2cc(-c3nc([C@H]4CC[C@H](C(=O)O)CC4)n4ncnc(N)c34)[nH]c12 [OSI-027] (partner 0.5 µM)
relative viability (NCI-H1563; first compound 5 µM): 0.76
relative viability (NCI-H1563; first compound 15.81 µM): 0.652
relative viability (NCI-H1563; first compound 50 µM): 0.814
relative viability (NCI-H1563; first compound 158.11 µM): 0.52
relative viability (NCI-H1563; first compound 500 µM): 0.223
relative viability (NCI-H1648; first compound 5 µM): 0.273
relative viability (NCI-H1648; first compound 15.81 µM): 0.241
relative viability (NCI-H1648; first compound 50 µM): 0.22
relative viability (NCI-H1648; first compound 500 µM): 0.203
relative viability (SW 900; first compound 5 µM): 0.44
relative viability (SW 900; first compound 15.81 µM): 0.547
relative viability (SW 900; first compound 50 µM): 0.65
relative viability (SW 900; first compound 158.11 µM): 0.245
relative viability (SW 900; first compound 500 µM): 0.0283
relative viability (NCI-H1623; first compound 5 µM): 0.431
relative viability (NCI-H1623; first compound 15.81 µM): 0.436
relative viability (NCI-H1623; first compound 50 µM): 0.438
relative viability (NCI-H1623; first compound 158.11 µM): 0.368
relative viability (NCI-H1623; first compound 500 µM): 0.408
relative viability (NCI-H522; first compound 5 µM): 0.706
relative viability (NCI-H522; first compound 15.81 µM): 0.747
relative viability (NCI-H522; first compound 50 µM): 0.7
relative viability (NCI-H522; first compound 158.11 µM): 0.612
relative viability (NCI-H522; first compound 500 µM): 0.467
relative viability (NCI-H2342; first compound 5 µM): 0.568
relative viability (NCI-H2342; first compound 15.81 µM): 0.572
relative viability (NCI-H2342; first compound 50 µM): 0.643
relative viability (NCI-H2342; first compound 158.11 µM): 0.552
relative viability (NCI-H2342; first compound 500 µM): 0.643
